Data from patent US20120238487A1, “POLYMER COMPOSITION USEFUL AS A PHARMACEUTICAL CARRIER” (ROBERT GORDON UNIVERSITY, priority 2009, published 2012).
≈ marks a conversion by molar mass, not a printed value. Read-outs that look alike come from different tables or passages of the source.

How the values were obtained:
[1] = Aqueous solubility of model hydrophobic drugs; type: physicochemical
HEK 293 cells = assay: MTT assay on HEK 293 cells; type: cell-based, Human; settings: for IC50: Homo sapiens
Experimental: The safety profile of various drugs and nano-aggregates of the drugs and polymers were investigated using the standard colorimetric MTT (3-(4,5-Dimethylthiazol-2-yl)-2,5-diphenyltetrazolium bromide) assay.
An MTT assay was carried out using Caco-2 and HEK cells. Caco-2 cells were cultured as previously described. HEK cells were cultured in Dulbecco's minimum essential medium (DMEM) containing 10% FBS and 1% penicillin streptomycin (Penstrep).
Polymeric self-assemblies were formed by probe sonicating the polymers in sterile water (5 mgmL^−1). The polymer stock solutions were diluted to 0.005 mgmL^−1 with media. Etoposide stock solution (20 mgmL^−1) was prepared by diluting the drug in DMSO. The formulations were prepared by addition of drug into 0.005 mgmL^−1 polymer solution.

[2] = cited from earlier work
[3] = type: physicochemical
Experimental: (§1) Polymer solutions of 1 mgmL^−1, 3 mgmL^−1 and 6 mgmL^−1 were made up in deionised water and probe sonicated for 10 mins to ensure homogeneity. The hydrophobic drug was added in 1:1, 5:1 and 10:1 drug:excipient ratios and the drug-polymer solutions were probe sonicated for a further 10 mins to ensure maximum encapsulation was achieved. After cooling to room temperature, the solutions were filtered using 0.45 μm GDX PVDF syringe filters to ensure any excess unencapsulated propofol was removed.
A reverse phase Zorbax ODS 250 mm×46 mm×5 […] HPLC column was used with flow rate of 1 mlmin^−1 of the mobile phase (40:3:57 methanol:acetonitrile:water) in an isocratic mode. […] The samples were diluted with mobile phase and 20 μl was injected onto the column, the resultant peak at 20 mins was analysed. The drug content was determined by comparing to a calibration carried out on etoposide dissolved in methanol (31.3-500 μgmL^−1).

[4] = type: physicochemical; remark: listed apart in the source
Experimental: Polymer solutions of 1 […] 6 mgmL^-1 were made up in deionised water and probe sonicated for 10 mins to ensure homogeneity. […] A reverse phase Phenomenex C18 250 mm×46 mm×5 μm HPLC column was used with flow rate of 1 mlmin^-1 of the mobile phase (45:55 acetonitrile:45 mM potassium dihydrogen phosphate made up in water and pH adjusted to pH3 with orthophosphoric acid) in an isocratic mode.

[5] = type: physicochemical; remark: listed apart in the source
Experimental: as §1
The BNIPDaoct content in self assemblies was carried out using reverse phase Zorbax ODS 250 mm×46 mm×5 […] HPLC column was used with flow rate of 1 mlmin^−1 of the mobile phase (55:45 buffer:acteonitrile) in an isocratic mode. The buffer was made up of 0.4 g octane sulfonic acid and anhydrous sodium acetate made up to 200 ml with deionised water, the solution was pH adjusted to pH4.5. The column eluent was monitored using a fluorescent Detector. The samples were diluted with mobile phase and 20 μl was injected onto the column, the resultant peak at 10 mins was analysed. A calibration was carried out by dissolving BNIPDaoct in DMSO:water (50:50 v/v) (39-625 μgmL^−1).

Caco-2 cells = assay: MTT assay on Caco-2 cells; type: cell-based
Experimental: The cytotoxicity of the modified PAA polymers was determined using the MTT assay model. Caco-2 cells were cultured in minimum essential medium (MEM) containing 10% foetal bovine serum (FBS), 1% L-glutamine and 1% non essential amino acids (NEAA).
A 10 mgmL^−1 polymer solution was prepared using sterile water as the diluent. The solution was further diluted with media to form a 0.5 mgmL^−1 stock solution. From the stock solution nine dilutions (0.2-1×10^−4 mgmL^−1) were made using media as the diluent.
Caco-2 cells (200 μL, 10000 cells/well) in exponential growth phases were seeded into a 96-well flat bottomed plate and incubated for 24 h at 37° C. with 5% CO2. The media was replaced with increasing polymer concentrations (0.5-1×10^−4 mgmL^−1) as prepared above. Media and Triton X (1:5 PBS) were the negative and positive controls respectively. The plate was incubated as before. After 24 h the polymer solutions were removed and replaced with fresh media. […] The remaining purple formazan complexes were dissolved in DMSO (200 μL) and L-glycine buffer (25 mL, made up of 3.75 g glycine and 2.93 g NaCl made up in 500 mL and pH adjusted to pH 10.5) and the absorbance of the plates was read at 570 nm using a microplate reader (Ascend Lab-Systems, UK). Percentage cell viability was calculated relative to the positive and negative controls. […]

[6] = Drug loading capacity: solubilisation of prednisolone (HPLC); type: physicochemical
[7] = type: physicochemical; remark: listed apart in the source
Experimental: Polymer solutions of 1 […] 6 mgmL^-1 were made up in deionised water and probe sonicated for 10 mins to ensure homogeneity. […] The drug loading capacity of the self assemblies was determined using high performance liquid chromatography (HPLC). […] The samples were diluted with mobile phase and 20 μl was injected onto the column, the resultant peak at 7 mins was analysed.

O=C1c2cccc3cccc(c23)C(=O)N1CCCNCCCCCCCCNCCCN1C(=O)c2cccc3cccc(c23)C1=O [BNIPDaoct, Bisnahthalimidopropyldiaminooctane]
aqueous solubility (in words) [1]: negligible
IC50 (n = 3 ± SD) (HEK 293 cells; HEK 293 cells, IC50 of the polymer was used in the formulations): 0.00496 (0.00005) mgmL^−1

CC(C)c1cccc(C(C)C)c1O [Propofol, 2,6-diisopropylphenol]
aqueous solubility ([2]; 25° C.): 100 µg/mL (≈ 561 µM)
aqueous solubility ([2]; value used for fold increase): 0.1 mgmL^−1

5-Dimethylamino-1-naphthalenesulfonyl-PAA [Dansyl10]
Concentration of Etoposide solubilised [3]: 1.890 (0.011) mgmL^−1
Increase from aqueous solubility [4]: 557 Fold

COC1=CC(=O)C[C@@H](C)[C@]12Oc1c(Cl)c(OC)cc(OC)c1C2=O [Griseofulvin, (2S)-trans-7-chloro-2′,4,6-trimethoxy 6′-methylspiro(benzofuran-2[3H],1′-[2]cyclohexene)3,4′-dione]
aqueous solubility ([2]; 25° C.): 30 µg/mL (≈ 85 µM)
aqueous solubility ([2]; value used for fold increase): 0.03 mgmL^−1

Cholesterol-PAA [Ch5]
Concentration of BNIPDaoct solubilised [5]: 0.3 mgmL^−1
Excipient:Drug Ratio after solubilisation [5]: 3.33
Concentration of Etoposide solubilised [3]: 1.020 (0.040) mgmL^−1
Excipient:Drug Ratio after solubilisation [3]: 5.88
Increase from aqueous solubility [3]: 7 Fold
Number of fold more cytotoxic compared to IC50 of PAA (Caco-2 cells): −1.61
Concentration of Griseofulvin solubilised [4]: 1.2 mgmL^−1
Excipient:Drug Ratio after solubilisation [4]: 5.00
Increase from aqueous solubility [4]: 40 Fold
maximum concentration of prednisolone solubilised [6]: 7.05 mgmL^−1

5-Dimethylamino-1-naphthalenesulfonyl-PAA [Dansyl5]
maximum concentration of propofol solubilised [7]: 22.4 mgmL^−1

COc1cc([C@@H]2c3cc4c(cc3[C@@H](O[C@@H]3O[C@@H]5CO[C@@H](C)O[C@H]5[C@H](O)[C@H]3O)[C@H]3COC(=O)[C@H]23)OCO4)cc(OC)c1O [Etoposide]
aqueous solubility ([2]; 37° C.): 148 to 153 µg/mL
aqueous solubility ([2]; value used for fold increase): 0.15 mgmL^−1
IC50 (HEK 293 cells; HEK293, read-out: IC50 (n = 3 ± SD), HEK 293 cells, IC50 of the polymer was used in the formulations): 2.48 µg/mL (≈ 4.21 µM)
IC50 (HEK 293 cells; HEK293, IC90 of the polymer used in the formulations (5 μgmL^−1), read-out: IC50 on HEK 293 cells): 2.5 µg/mL (≈ 4.25 µM)
IC50 (Caco-2 cells; Homo sapiens, Caco-2, read-out: IC50 on Caco-2 cells): 190 µg/mL (≈ 323 µM)
